Assay results reported in patent publication EP4653017A1, “ANTIBODY-DRUG CONJUGATE AND USE THEREOF” (Tyligand Bioscience (Shanghai) Limited, priority 2023, dated 2024).
pEC50, pIC50: −log10 of the molar value. Where a name gives a salt, the structure may show the parent alone.

Experiments:
THP-1 cells = test: Activation of IFN-β secretion by THP-1 cells (IFN-beta ELISA); type: cell-based, human
A375 = test: Inhibition of tumor cell line proliferation (Table 3), A375; type: cell-based; settings: A-375; A375, Human melanoma cells
SK-MEL5 = test: Inhibition of tumor cell line proliferation (Table 3), SK-MEL5; type: cell-based; settings: SK-MEL-5; SK-MEL5, Human melanoma cells
4T1 = test: Inhibition of tumor cell line proliferation (Table 3), 4T1; type: cell-based; settings: 4T1, Mouse breast cancer cells
CT26 cells = test: CT26 syngeneic mouse bilateral transplanted tumor model; type: in vivo, BALB/c mice; settings: left (untreated) tumor; 50 µg compound/mouse (2.5 mg/kg) intratumorally into right flank on days 0 and 4; day 13 after treatment
Method: When tumors grew to an average volume of 100 mm^3, treatments were randomized and started based on tumor size and mouse body weight. The first day of dosing was Day 0. Two doses were administered, 50 µg compound/mouse (i.e., 2.5 mg/kg) was injected intratumorally into the right flank on days 0 and 4, and the same volume of PBS (Hyclone Company, Cat. No. #SH30258.01) was used as a control. The left tumor was left untreated. Control mice were sacrificed after 13 days of dosing and treated mice were sacrificed 21 days later. During the experiment, the tumor volume and body weight were measured three times a week on the left and right sides, and the tumor volume was calculated as V = D × d × d/2 (wherein D represents the long diameter of the tumor and d represents the short diameter of the tumor).

[1] = test system: human gastric cancer NCI-N87 cells; test: Inhibition of NCI-N87 cell proliferation (CTG assay); type: cell-based
Method: NCI-N87 cells (Cell Bank of Chinese Academy of Sciences, Cat. No. #TCHu130) were cultured at 37°C, 5% CO2, 95% humidity in RPMI 1640 + 10% FBS (ExCell Bio, Cat. No. #FND500), the cells in logarithmic growth phase were harvested and counted, and cell viability was measured using Countstar automated cell counter based on classical trypan blue staining principle to ensure that the cell viability was above 90%. The cell concentration was adjusted, 135 µL of cell suspension was added into 96 well clear flat bottom black wall plate (Corning, Cat. No. #3904), 2000/well, and the cells was incubated in 96 well plate at 37°C and 5% CO2.
The cells in the 96 well plates that had been dosed were incubated at 37°C, 5% CO2 for 5 days before performing CTG assay. the plate was equilibrated to room temperature for 30 min and CTG Reagent (CellTiter-Glo® Luminescent Cell Viability Assay (Promega, Cat. No. #G7573) was melt, 50 µL of CTG Solution was added to each well, and shaked on an orbital shaker for 2 min to lyse the cells. The plate was left at room temperature for 10 min to stabilize the cold light signal and the cold light value was read (EnVision® Multifunctional Plate Reader, PerkinElmer#2105). [formula]
GraphPad Prism software was used to analyze the data, and Dose-response-inhibition equation was used to fit the data to obtain the dose-response curve from which IC50 value was calculated. […]

[2] = test system: human ovarian cancer SK-OV-3; test: SK-OV-3 subcutaneous xenograft model, Example 7 (ADC-1, ADC-2); type: in vivo, BALB/c Nude mice; settings: 0.1 mg/kg; for Tumor growth inhibition (TGI) / Rate of complete tumor regression (TV = 0 mm^3): Day 21; for Rate of complete tumor regression (TV = 0 mm^3): 5 mice
Method: 0.1 mL (1×10^7) of human ovarian cancer SK-OV-3 cells (purchased from ATCC, Cat#HTB-77) (PBS: matrigel volume ratio of 1:1) was subcutaneously inoculated into the right posterior back of each mouse (BALB/c Nude mice, 6-8 weeks old, female, Jiangsu GemPharmatech Co., Ltd.). When the mean tumor volume reached approximately 150 mm^3, the mice were randomly divided into 9 experimental groups, with 5 mice in each group. […] Group 9 was received intratumoral injection of CDN-3 0.1 mg/kg on Days 0, 4, and 7 of the study for a total of 3 drug doses (see Table 4 for animal grouping). The vehicle was a PBS buffer. Tumor volume and body weight were measured twice weekly during the experimental period, and data was recorded. Tumor volume was calculated according to the formula in Example 3.

`Nc1nc2c(ncn2[C@@H]2O[C@@H]3CO[P@@](=O)(S)O[C@H]4[C@H](F)[C@H](n5cnc6c(N)nc(Cl)nc65)O[C@@H]4CO[P@@](=O)(S)O[C@@H]2[C@@H]3O)c(=O)[nH]1` [CDN-3, (2',3')-cyclo-(Rp,Rp)-[2'-O-thiophosphodiester-guanosine]-[3'-O-thiophosphodiester-2-chloro-2'-deoxy-2'-fluoro-beta-adenosine]diammonium salt] was tested, and the “STING agonist activity (in words)” value (THP-1 cells; EC50 stronger than 2',3'-cGAMP, comparable to ADU-S100) was “significant STING agonist activity”, the pEC50 (THP-1 cells; Homo sapiens, THP-1, 24 h, read-out: THP-1 activity) was 5.00 to 6.00 and the pIC50 (A375) was 6.69. For the same molecule, the pIC50 (SK-MEL5) was 6.30, the pIC50 (4T1) was 5.64 and the “growth inhibition rates of left tumors” value (CT26 cells) was 91.2%. For the same molecule, the “inhibitory effects on NCI-N87 cell proliferation (in words)” value [1] was “strong inhibitory effects”, the pIC50 ([1]; Homo sapiens, 120 h, NCI-N87, 5 days incubation, top concentration 600 nM) was 6.68 and the “Tumor Volume (mm^3, Day 21)” value ([2]; i.t., day 0, 4, 7) was 540 ± 47 mm^3. For the same molecule, the “Tumor growth inhibition (TGI)” value ([2]; i.t., day 0, 4, 7) was 39%, the “Rate of complete tumor regression (TV = 0 mm^3)” value ([2]; i.t., day 0, 4, 7) was 0% (0/5) and the “Tumor Volume (mm^3, Day 21)” value ([2]; i.v., day0) was 723 ± 140 mm^3. For the same molecule, the “Tumor growth inhibition (TGI)” value ([2]; i.v., day0) was 10% and the “Rate of complete tumor regression (TV = 0 mm^3)” value ([2]; i.v., day0) was 0% (0/5).
